The source of these data is patent publication US12187706B2, “NLRP3 modulators” (INNATE TUMOR IMMUNITY, INC., priority 2019, dated 2025).

pEC50: −log10 of the molar value.

The target in this assay is T1, NLRP3 (Homo sapiens, UniProt Q96P20).
T1 construct: host or cells: PMA-differentiated THP-1 cells
Kind of assay: Measurement of IL-1β production in PMA-differentiated THP-1 cells (NLRP3 hIL1B). The format is cell-based. The method, boiled down:
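THP-1 cells differentiated with PMA, then replated in RPMI with 2% FBS and exposed to compound for 4 h (alternative: 2 h; hTRF protocol: 2 h at 37 °C, top concentration 10 μM). Supernatant IL-1β was quantified by ELISA or HTRF. Final DMSO 1%, with vehicle control.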

T1 sequence (Q96P20 whole entry): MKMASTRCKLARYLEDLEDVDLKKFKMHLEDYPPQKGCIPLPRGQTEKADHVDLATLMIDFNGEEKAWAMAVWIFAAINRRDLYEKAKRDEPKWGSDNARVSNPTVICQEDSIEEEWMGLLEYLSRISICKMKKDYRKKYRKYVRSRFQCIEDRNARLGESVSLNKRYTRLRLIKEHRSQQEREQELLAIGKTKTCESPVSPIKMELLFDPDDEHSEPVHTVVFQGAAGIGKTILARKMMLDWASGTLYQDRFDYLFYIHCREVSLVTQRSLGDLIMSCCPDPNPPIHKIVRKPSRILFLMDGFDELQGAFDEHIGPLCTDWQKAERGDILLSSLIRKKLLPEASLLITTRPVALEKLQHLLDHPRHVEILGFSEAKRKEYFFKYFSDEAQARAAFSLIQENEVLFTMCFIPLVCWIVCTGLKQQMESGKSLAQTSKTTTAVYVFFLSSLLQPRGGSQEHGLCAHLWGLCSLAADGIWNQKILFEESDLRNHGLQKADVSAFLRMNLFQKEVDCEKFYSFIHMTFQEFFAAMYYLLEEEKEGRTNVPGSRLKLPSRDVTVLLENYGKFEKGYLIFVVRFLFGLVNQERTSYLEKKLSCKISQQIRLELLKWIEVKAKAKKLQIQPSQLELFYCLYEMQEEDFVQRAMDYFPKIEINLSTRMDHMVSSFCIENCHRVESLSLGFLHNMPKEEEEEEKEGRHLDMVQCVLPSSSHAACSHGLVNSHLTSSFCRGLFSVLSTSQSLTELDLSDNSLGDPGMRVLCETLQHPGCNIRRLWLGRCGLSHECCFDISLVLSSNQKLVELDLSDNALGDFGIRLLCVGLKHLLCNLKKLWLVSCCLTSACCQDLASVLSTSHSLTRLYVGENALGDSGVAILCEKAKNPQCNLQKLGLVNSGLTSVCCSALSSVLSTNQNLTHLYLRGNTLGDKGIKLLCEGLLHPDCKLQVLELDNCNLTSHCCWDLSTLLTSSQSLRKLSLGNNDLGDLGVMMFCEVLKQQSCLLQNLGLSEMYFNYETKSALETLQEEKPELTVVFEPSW

One may read the pEC50 as −log10 of the EC50, conventionally taken in molar units. Read a low pEC50 as a high EC50. `Nc1nc(NC[C@H]2C[C@@H](O)C2)c2ccc(-c3ccn[nH]3)cc2n1` [Example 166]: the negative logarithm of the EC50 (pEC50) was 6.09.

In the case of `Nc1nc(NCc2cnc[nH]2)c2ccc(-c3ccn[nH]3)cc2n1` [Example 87], the pEC50 was 5.79.

Consider `Nc1nc(NC(CO)CO)c2ccc(-c3ccn[nH]3)cc2n1` [Example 74], for which the pEC50 was 6.11.

As for `Nc1nc(NCc2cc3n(n2)CCCO3)c2ccc(-c3ccn[nH]3)cc2n1` [Example 44], the pEC50 was 5.67.

In the case of `Nc1nc(N[C@H]2CC[C@@H](CO)C2)c2ccc(-c3ccn[nH]3)cc2n1` [Example 63], the pEC50 was 5.76.

On to `COCCNc1nc(N)nc2cc(-c3ccn[nH]3)ccc12` [Example 102], for which the pEC50 is 6.68.

`Nc1nc(NC[C@@H]2CCCC[C@@H]2O)c2ccc(-c3ccn[nH]3)cc2n1` (racemic) [Example 77] showed a pEC50 of 6.19.

The compound `Nc1nc(N[C@H]2CCC[C@H](O)C2)c2c(F)cc(-c3cc[nH]n3)cc2n1` (racemic) [Example 17, trans-3-((2-amino-5-fluoro-7-(1H-pyrazol-3-yl)quinazolin-4-yl)amino)cyclohexan-1-ol] had a negative logarithm of the EC50 (pEC50) of 6.02.

As to `Nc1nc(NCC2CCC(=O)N2)c2ccc(-c3ccn[nH]3)cc2n1` (single isomer, unassigned) [Example 5, 5-(((2-amino-7-(1H-pyrazol-5-yl)quinazolin-4-yl)amino)methyl)pyrrolidin-2-one], the pEC50 was 4.88.

Consider `Nc1nc(NC2CCCOC2)c2ccc(-c3ccn[nH]3)cc2n1` (centres unmarked) [Example 105], for which the pEC50 is 5.70.

`CN(C)c1ccc(CNc2nc(N)nc3cc(-c4ccn[nH]4)ccc23)nn1` [Example 164, N4-((6-(dimethylamino)pyridazin-3-yl)methyl)-7-(1H-pyrazol-5-yl)quinazoline-2,4-diamine] showed a negative-log EC50 (pEC50) of 5.91.

Regarding `Nc1nc(NCC2(O)CCOCC2)c2ccc(-c3ccn[nH]3)cc2n1` [Example 37], the pEC50 was 6.06.

Regarding `Nc1nc(NCCCO)c2c(-c3cc[nH]n3)cc(-c3cc[nH]n3)cc2n1` [Example 19, 3-((2-amino-5,7-di(1H-pyrazol-3-yl)quinazolin-4-yl)amino)propan-1-ol], the negative-log EC50 (pEC50) is 5.01.

As to `Nc1nc(NCC#CCO)c2ccc(-c3ccn[nH]3)cc2n1` [Example 106], the negative logarithm of the EC50 (pEC50) is 6.30.

Compound `C[C@@H](O)CNc1nc(N)nc2cc(-c3ccn[nH]3)ccc12` [Example 1, (R)-1-((2-amino-7-(1H-pyrazol-5-yl)quinazolin-4-yl)amino)propan-2-ol] gave a pEC50 of 6.35.

In the case of `COc1cc(-c2cc[nH]n2)cc2nc(N)nc(NCc3cc[nH]n3)c12` [Example 132], the negative logarithm of the EC50 (pEC50) was 5.66.

Regarding `Nc1nc(NCc2ccc(Cl)cn2)c2ccc(-c3ccn[nH]3)cc2n1` [Example 151], the negative-log EC50 (pEC50) is 6.19.

In turn, `Nc1nc(N[C@@H]2COC[C@H]2O)c2ccc(-c3ccn[nH]3)cc2n1` (racemic) [Example 25, trans-4-((2-amino-7-(1H-pyrazol-5-yl)quinazolin-4-yl)amino)tetrahydrofuran-3-ol] showed a pEC50 of 6.14.

`CC(CCO)Nc1nc(N)nc2cc(-c3ccn[nH]3)ccc12` (single isomer, unassigned) [Example 200, 3-((2-amino-7-(1H-pyrazol-5-yl)quinazolin-4-yl)amino)butan-1-ol]: the pEC50 was 6.07.

`Nc1nc(N[C@H]2COC[C@@H](O)C2)c2ccc(-c3ccn[nH]3)cc2n1` (single isomer, unassigned) [Example 13]: the pEC50 was 5.93.

As for `Nc1nc(NCC2(CN3CCOCC3)CC2)c2ccc(-c3cc[nH]n3)cc2n1` [Example 195], the pEC50 is 6.52.

The compound `Nc1nc(NCCc2ccccn2)c2c(F)cc(-c3cc[nH]n3)cc2n1` [Example 122] gave a negative-log EC50 (pEC50) of 5.95.

In turn, `Nc1nc(NCCCO)c2cc(F)c(-c3ccn[nH]3)cc2n1` [Example 24, 3-((2-amino-6-fluoro-7-(1H-pyrazol-5-yl)quinazolin-4-yl)amino)propan-1-ol] showed a negative-log EC50 (pEC50) of 5.77.

`Nc1nc(NCCc2cnc[nH]2)c2ccc(-c3ccn[nH]3)cc2n1` [Example 148] showed a pEC50 of 6.29.

With `Cn1cncc1CNc1nc(N)nc2cc(-c3ccn[nH]3)ccc12` [Example 75], the negative logarithm of the EC50 (pEC50) was 5.26.

In the case of `Nc1nc(NCCc2cccnc2)c2ccc(-c3ccn[nH]3)cc2n1` [Example 153], the pEC50 was 6.38.

In the case of `CO[C@H]1C[C@H](Nc2nc(N)nc3cc(-c4ccn[nH]4)ccc23)C1` [Example 173], the pEC50 was 6.85.

As for `Nc1nc(N[C@H]2CCC[C@H]2O)c2ccc(-c3ccn[nH]3)cc2n1` [Example 66], the pEC50 is 6.13.

For the compound `Nc1nc(NC2(CO)CC2)c2ccc(-c3ccn[nH]3)cc2n1` [Example 65], the pEC50 is 6.60.

For the compound `Nc1nc(NCC(F)(F)c2ccccn2)c2ccc(-c3ccn[nH]3)cc2n1` [Example 26], the negative-log EC50 (pEC50) was 6.92.

`Nc1nc(NCc2cnccn2)c2ccc(-c3ccn[nH]3)cc2n1` [Example 52] showed a pEC50 of 6.11.

Compound `Cc1cc(-c2cc[nH]n2)cc2nc(N)nc(NCc3cncnc3)c12` [Example 136] showed a pEC50 of 5.97.

On to `Nc1nc(NCCCO)c2ccc(-c3ccn[nH]3)cc2n1` [Example 14, 3-((2-amino-7-(1H-pyrazol-3-yl)quinazolin-4-yl)amino)propan-1-ol], for which the pEC50 is 6.43.

`Nc1nc(NC[C@H]2C[C@H](O)C2)c2ccc(-c3ccn[nH]3)cc2n1` [Example 167] showed a pEC50 of 5.91.

The compound `Nc1nc(N2CCCOCC2)c2ccc(-c3cc[nH]n3)cc2n1` [Example 120] showed a pEC50 of 6.17.

`Nc1nc(NCc2cnn(-c3ccccc3)c2)c2ccc(-c3ccn[nH]3)cc2n1` [Example 169]: the pEC50 was 6.14.

Compound `Nc1nc(N[C@@H]2C[C@H]2c2cccnc2)c2ccc(-c3ccn[nH]3)cc2n1` (single isomer, unassigned) [Example 162, 7-(1H-pyrazol-5-yl)-N4-((trans)-2-(pyridin-3-yl)cyclopropyl)quinazoline-2,4-diamine] showed a pEC50 of 6.62.

With `Nc1nc(N[C@H]2C[C@H](O)C[C@@H]2O)c2ccc(-c3cc[nH]n3)cc2n1` (racemic) [Example 118], the pEC50 was 6.01.

Turning to `Nc1nc(NCc2cn[nH]c2)c2ccc(-c3ccn[nH]3)cc2n1` [Example 147], the pEC50 was 6.59.

In turn, `Nc1nc(N2CCCOCC2)c2c(F)cc(-c3cc[nH]n3)cc2n1` [Example 123] had a pEC50 of 5.54.

Take `Nc1nc(NC(CO)c2nccs2)c2ccc(-c3ccn[nH]3)cc2n1` (centres unmarked) [Example 35]: the negative logarithm of the EC50 (pEC50) was 5.26.

As for `CCCC(CCO)Nc1nc(N)nc2cc(-c3ccn[nH]3)ccc12` (single isomer, unassigned) [Example 98, 3-((2-amino-7-(1H-pyrazol-5-yl)quinazolin-4-yl)amino)hexan-1-ol], the pEC50 is 6.07.

Regarding `CC(C)(C)CNc1nc(N)nc2cc(-c3ccn[nH]3)ccc12` [Example 181], the pEC50 was 6.74.

The compound `Nc1nc(NCC(F)F)c2ccc(-c3ccn[nH]3)cc2n1` [Example 78] showed a negative-log EC50 (pEC50) of 6.20.

In turn, `CC(C)(O)C(O)CNc1nc(N)nc2cc(-c3ccn[nH]3)ccc12` (single isomer, unassigned) [Example 9, 1-((2-amino-7-(1H-pyrazol-5-yl)quinazolin-4-yl)amino)-3-methylbutane-2,3-diol] gave a pEC50 of 5.88.

Regarding `Cn1cnc(CNc2nc(N)nc3cc(-c4ccn[nH]4)ccc23)c1` [Example 146], the pEC50 is 5.07.

`Cc1cc(-c2cc[nH]n2)cc2nc(N)nc(NCc3cc[nH]n3)c12` [Example 137] gave a pEC50 of 6.77.

The compound `C[C@]1(O)C[C@H](Nc2nc(N)nc3cc(-c4ccn[nH]4)ccc23)C1` [Example 192, (trans)-3-((2-amino-7-(1H-pyrazol-5-yl)quinazolin-4-yl)amino)-1-methylcyclobutan-1-ol] gave a pEC50 of 6.43.

For `Nc1nc(NCc2cccnc2)c2ccc(-c3ccn[nH]3)cc2n1` [Example 144], the negative logarithm of the EC50 (pEC50) is 7.05.

Consider `Nc1nc(NCc2cnsc2)c2ccc(-c3ccn[nH]3)cc2n1` [Example 174], for which the negative logarithm of the EC50 (pEC50) is 6.74.

`Nc1nc(N[C@H]2CCC[C@@H](O)C2)c2ccc(-c3ccn[nH]3)cc2n1` (single isomer, unassigned) [Example 179, (cis)-3-((2-amino-7-(1H-pyrazol-5-yl)quinazolin-4-yl)amino)cyclohexan-1-ol] showed a pEC50 of 6.57.

In turn, `Nc1nc(NCc2nccs2)c2ccc(-c3ccn[nH]3)cc2n1` [Example 28] had a pEC50 of 6.62.

Take `Nc1nc(N[C@@H]2COCC[C@H]2O)c2ccc(-c3ccn[nH]3)cc2n1` [Example 138]: the pEC50 is 5.67.

Compound `Nc1nc(NCc2cocn2)c2ccc(-c3ccn[nH]3)cc2n1` [Example 155] gave a negative logarithm of the EC50 (pEC50) of 6.31.

Turning to `CCOCCNc1nc(N)nc2cc(-c3ccn[nH]3)ccc12` [Example 103], the pEC50 is 6.43.

On to `Nc1nc(NC2CCS(=O)(=O)CC2)c2ccc(-c3ccn[nH]3)cc2n1` [Example 55], for which the pEC50 is 4.71.

For `Nc1nc(NCc2ncco2)c2ccc(-c3ccn[nH]3)cc2n1` [Example 61], the pEC50 is 6.66.

As for `Nc1nc(NCc2cc[nH]n2)c2c(Cl)cc(-c3cc[nH]n3)cc2n1` [Example 129], the negative logarithm of the EC50 (pEC50) was 6.43.

As to `Nc1nc(NCc2ccno2)c2ccc(-c3ccn[nH]3)cc2n1` [Example 71], the pEC50 was 6.19.

With `CN1CC[C@H](Nc2nc(N)nc3cc(-c4ccn[nH]4)ccc23)C1` [Example 139], the pEC50 was 5.75.

In turn, `Nc1nc(NCc2ccn(-c3ccccn3)n2)c2ccc(-c3ccn[nH]3)cc2n1` [Example 187] had a pEC50 of 6.64.

In turn, `CC(C)(O)C(O)CNc1nc(N)nc2cc(-c3ccn[nH]3)ccc12` (single isomer, unassigned) [Example 10, 1-((2-amino-7-(1H-pyrazol-5-yl)quinazolin-4-yl)amino)-3-methylbutane-2,3-diol] showed a negative logarithm of the EC50 (pEC50) of 5.73.
